We go through four compounds from US7947854B2, “Bis-cationic compounds and use thereof” (The University of Sydney, priority 2003, dated 2011).

Data set [1] relates to secreted phospholipase B (LPL/LPTA activities). The data set is described as follows: Radiometric assay, secreted LPL and LPTA activities (Lyso assay). In kind it is biochemical, Cryptococcus neoformans H99. As to the method: (§1) Fungal isolates and media. […] Isolate H99 was kindly supplied by Dr. Gary Cox (Duke University Medical Center, Durham, N.C., USA), and subcultured onto Sabouraud dextrose agar (SDA) at 30° C.
(§2) Preparation of supernatants containing secreted phospholipase activities. Isolate H99 was grown to confluence on SDA in 16 cm diameter Petri dishes for 72 h at 30° C. in air. Cells scraped from 10-20 dishes were washed sequentially with isotonic saline and imidazole buffer (10 mM imidazole, 2 mM CaCl2, 2 mM Mg Cl2, 56 mM D-Glucose, made up in isotonic saline, pH 5.5), resuspended in a volume of this buffer of about 10% of the cell volume, and incubated for 24 h at 37° C. The cell-free supernatant was separated by centrifugation as previously described and stored at −70° C.
(§3) Secreted LPL and LPTA activities were measured simultaneously in a reaction mixture containing 1-[^14C]palmitoyl lyso-PC (25,000 dpm) and carrier lyso-PC (final concentration 200 μM) in assay buffer. The reaction time was […] with 1 μg of total protein and LPL activity was measured by the rate of loss of 1-[^14C]palmitoyl lyso-PC with release of radiolabelled fatty acids. LPTA activity was estimated from the rate of formation of radiolabelled PC.
(§4) All reactions were terminated by adding 0.5 mL of chloroform:methanol (2:1 v/v). The reaction products were extracted by the method as disclosed in Bligh, E. C. and W. J. Dyer. 1959 ‘A rapid method of total lipid extraction and purification.’ Can. J. Biochem. Physiol. 37:911-917, separated by TLC and quantified as previously described. In the case of PLC activity, the TLC plates were developed in petroleum ether (BP 60-80° C.): diethyl ether: acetic acid (90:15:1, v/v/v) instead of chloroform:methanol:water (65:25:4, v/v/v).
(§5) Preparation of inhibitors and use in assays. The following compounds were tested (for structures, see FIG. 2): compound 1, 1,12-bis(tributylphosphonium)dodecane dibromide (Fluka AG, Buchs, Switzerland); compound 2, 1,10-bis(tributylammonium)-decane dibromide; compound 3, 1,12-bis(tributylammonium)do-decane dibromide (both synthesised in-house); compound 4, 1,10-bis(trimethylammonium)decane dibromide [“decamethonium”] (Sigma, St. Louis Mo., USA). All compounds were prepared as stock solutions of 700 μM in assay buffer containing 5 mM EDTA, which was then diluted serially with buffer to obtain solutions of 70, 7, 0.7 and 0.07 μM. In each assay, 45 μL of these solutions was used, and the final volume of 125 μL was made up of substrate, enzyme and buffer. The radiometric assay was carried out as above. Inhibition was calculated as the percent of substrates (DPPC or Lyso-PC) remaining in the case of PLB and LPL activities, or of DPPC produced, in the case of the LPTA activity. The amounts converted, or produced, in the inhibitor-free control were normalised to 100%, and the inhibition calculated against it. All assays were done in triplicate.
(§6) Under these conditions only PLB, LPL and LPTA activities (both secreted and cell-associated) were measured. Initially, compounds deemed to be potential inhibitors were assayed at 25 and 250 μM. Those showing some inhibition were then also assayed at 2.5 and 0.25 μM.

Data set [2] concerns Cryptococcus neoformans ATCC 90112. The experiment in a line: Antifungal susceptibility testing, microdilution MIC. In kind it is cell-based. As to conditions: Cryptococcus neoformans. As to the method: (§7) Antifungal susceptibility testing. The antifingal activity of the compounds was measured by a standard microdilution method. […] The fungal strains tested included Cryptococcus neoformans H99, Cryptococcus neoformans ATCC 90112 and Candida albicans ATCC 10231. All tests were performed in duplicate.
(§8) A range of cationic compounds were assayed for antifungal activity in a standardised serial dilution sensitivity test against C. neoformans ([…]) and C. Albicans (ATCC 10231).

Data set [3] concerns Candida albicans ATCC 10231. The description is as above. The class given is cell-based. The following applies: Candida albicans. As to the method:
as §7, §8

In data set [4] the test system is secreted phospholipase B (PLB activity). The data set is described as follows: Radiometric assay, secreted PLB activity. In kind it is biochemical, Cryptococcus neoformans H99. As to the method:
as §1, §2
(§9) Radiometric assay method for phospholipases. Enzyme activities were measured as described previously in a final volume of 125 μL at 37° C. For the determination of secreted PLB activity, carrier dipalmitoyl phosphatidylcholine (DPPC, final concentration 800 μM) and 1,2-di[1-^14C] palmitoyl phosphatidylcholine (20,000 dpm) were dried under nitrogen and suspended in 125 mM imidazole acetate buffer (assay buffer, pH 4.0) by sonication using a Branson 450 sonifier. The reaction time was 22 min, using 1 μg total protein and PLB activity was determined by the rate of decrease of the radiolabelled PC substrate, with appearance of the label in free fatty acid. This assay also simultaneously allows for the determination of phospholipase A, C and D activities. These activities were measured by the appearance of radiolabel from PC in Lyso PC, diacylglycerol and phosphatidic acid, respectively.
as §4, §5, §6

The next data set concerns erythrocyte. In kind it is cell-based. The following applies: 37° C., 1 h. As to the method: Human blood was collected in 10 mL Vacutainer tubes containing potassium-EDTA as anticoagulant. The blood from each vacutainer was transferred to a 50 mL centrifuge tube and the cells washed three times with calcium- and magnesium-free phosphate buffered saline (PBS) (Gibco) by centrifugation at 2000×g for 15 min. The third supernatant was clear and colourless. Cells were stored in PBS for up to two weeks. The cell suspension in PBS (0.5 mL) was mixed with a stock solution of test substance (0.5 mL) at the appropriate concentration (final erythrocyte concentration of approx. 0.5×10^9 per mL). The mixtures were incubated at 37° C. for 1 h with gentle shaking, then centrifuged at 2000×g for 10 min. The supernatant was diluted 10-fold with PBS and the optical density measured at 540 nm. The values for 0% and 100% lysis were determined by incubating cells with PBS or 0.1% Triton X-100 (in water), respectively. Assays were carried out in triplicate.

Data set [5] concerns cytosolic phospholipase B (LPL/LPTA activities). The experiment in a line: Radiometric assay, cytosolic LPL/LPTA activities. In kind it is biochemical, Cryptococcus neoformans H99. As to conditions: modifier 10 mM (Triton X-100 0.1% w/v). As to the method:
as §1
(§10) Cellular disruption to prepare membrane and cytosolic fractions. The cell pellet from the preparation of the supernatant, above, was also frozen at −70° C. After washing twice with imidazole buffer, it was disrupted in the presence of a protease inhibitor cocktail (P 8215 for fungal and yeast cells; 4-(2-aminoethyl)benzenesulfonyl fluoride hydrochloride, 100 mM, 1,10-phenanthroline, 500 mM, pepstatin A, 2.2 mM, E-64, 1.4 mM; Sigma) in a MiniBeadbeater-8 Cell Disrupter (MBB-8; Daintree Scientific, Tasmania, Australia) for three cycles of 1 min, alternating with a 1 min cooling period on ice. The homogenate was centrifuged at 14,000 g for 15 min to obtain the membrane (pellet) and the cytosolic (supernatant) fractions.
as §3, §4
(§11) All experiments were carried out in duplicate or triplicate. The effects of pH on the various phospholipase activities were measured using 50 mM final concentration of imidazole-acetate buffer (pH range 3-5), MES buffer (pH range 6-8) and glycine buffer (pH 9-10). Controls for non-enzymic breakdown of substrates were included at all pH values. Cations, Triton X-100 and metal chelators were made up as stock solutions in water and diluted to the final concentration in the appropriate assay buffer.
as §5
(§12) Under these conditions only PLB, LPL and LPTA activities (both secreted and cell-associated) were measured. Initially, compounds deemed to be potential inhibitors were assayed at 25 and 250 μM.

Data set [6] deals with membrane-associated phospholipase B (LPL/LPTA activities). The data set is described as follows: Radiometric assay, membrane-associated LPL/LPTA activities. The class given is biochemical, Cryptococcus neoformans H99. As to conditions: modifier 10 mM (Triton X-100 0.1% w/v). As to the method:
as §1, §10, §3, §4, §11, §5, §12

In data set [7] the test system is cytosolic phospholipase B (PLB activity). The data set is described as follows: Radiometric assay, cytosolic PLB activity. The class given is biochemical, Cryptococcus neoformans H99. As to conditions: modifier 10 mM (Triton X-100 0.1% w/v). As to the method: as §1, §10, §9, §4, §11
(§13) Preparation of inhibitors and use in assays. The following compounds were tested (for structures, see FIG. 2): compound 1, 1,12-bis(tributylphosphonium)dodecane dibromide (Fluka AG, Buchs, Switzerland); compound 2, 1,10-bis(tributylammonium)-decane dibromide; compound 3, 1,12-bis(tributylammonium)do-decane dibromide (both synthesised in-house); compound 4, 1,10-bis(trimethylammonium)decane dibromide [“decamethonium”] (Sigma, St. Louis Mo., USA). All compounds were prepared as stock solutions of 700 μM in assay buffer containing 5 mM EDTA, which was then diluted serially with buffer to obtain solutions of 70, 7, 0.7 and 0.07 μM. In each assay, 45 μL of these solutions was used, and the final volume of 125 μL was made up of substrate, enzyme and buffer. The radiometric assay was carried out as above.

Data set [8] relates to membrane-associated phospholipase B (PLB activity). The experiment in a line: Radiometric assay, membrane-associated PLB activity. In kind it is biochemical, Cryptococcus neoformans H99. As to conditions: modifier 10 mM (Triton X-100 0.1% w/v). As to the method: as §1, §10, §9, §4, §11, §13
The mark [9] stands for this setting: ATCC90112, Table 7, read-out: MIC (μM) Crypto. (ATCC 90112).
Where [10] appears, read: ATCC10231, Table 7, read-out: MIC (μM) C. alb. (10231).

SMILES strings stand for the structures. Where two headings read alike, the source gives them in different places. Marks after values point to notes of the source that are not given here.

By MIC is commonly meant the least concentration at which growth counts as inhibited.

For the compound `CCCCCCCCCCCCCCCC[P+](CCCC)(CCCC)CCCC`, the “Lyso assay (% inhibition) LPL” value in data set [1] (0.25 μM) is 0%; in data set [1] (2.5 μM), 0%; in data set [1] (25 μM) it was 15%; in data set [1] (250 μM), 98%. Besides, the “Lyso assay (% inhibition) LPTA” value is 0% in [1] (0.25 μM), 0% in data set [1] (2.5 μM), 5% in [1] (25 μM) and 95% in data set [1] (250 μM). For the same compound, the MIC was at most 0.6 µM in [2] (setting [9]) and 2.2 µM in data set [3] (setting [10]). Also, the “PLB assay (% inhibition)” value in data set [4] (0.25 μM) worked out at 0%; in data set [4] (2.5 μM) it was 15%; in data set [4] (25 μM), 37%; in data set [4] (250 μM), 92%. For the same compound, the “Haemolytic assay (%)” value is reported as 2.5% in the data set on erythrocyte (3.5 μM); 4% in the data set on erythrocyte (35 μM); 7% in the data set with erythrocyte (88 μM); 32% in the data set with erythrocyte (175 μM); 100% with erythrocyte (350 μM).
In the case of `C[N+](C)(C)CCCCCCCCCCCC[N+](C)(C)C` [1,12-Bis-(trimethylammonium)dodecane dibromide], the “Lyso assay (% inhibition) LPL” value in [1] (25 μM) and in data set [1] (250 μM) was 250 μM = 0% 25 μM = 0% 2.5 μM = n.d. 0.25 μM = n.d in each case. Moreover, the “Lyso assay (% inhibition) LPTA” value came out at 4% in [1] (25 μM) and 5% in data set [1] (250 μM). The MIC was 175 µM in data set [2] (ATCC90112, read-out: MIC (μM) Crypto. (ATCC 90112)) and 175 µM in data set [3] (ATCC10231, read-out: MIC (μM) C. alb. (10231)). Also, the “PLB assay (% inhibition)” value in data set [4] (25 μM) is 2%; in data set [4] (250 μM) it was 3%. In addition, the “Haemolytic assay (%)” value in the data set on erythrocyte (3.5 μM), in the data set with erythrocyte (35 μM), with erythrocyte (88 μM), in the data set with erythrocyte (175 μM) and in the data set with erythrocyte (350 μM) was 350 μM = 0% 175 μM = 0% 88 μM = 0% 35 μM = 0% 3.5 μM = 0% throughout.
On to `CCCC[N+]1(CCCCCCCCCCCC[N+]2(CCCC)CCCC2)CCCC1` [C12-bis-N-butyl-pyro. dibromide, 1,12-Bis-(N-butylpyrrolidinium)dodecane dibromide], for which the MIC in data set [2] (setting [9]) and in data set [3] (setting [10]) was 88 µM throughout. The “Haemolytic assay (%)” value in the data set on erythrocyte (3.5 μM), in the data set on erythrocyte (35 μM), with erythrocyte (88 μM), in the data set on erythrocyte (175 μM) and in the data set with erythrocyte (350 μM) was 350 μM = 0% 175 μM = 0% 88 μM = 0% 35 μM = 0% 3.5 μM = 0% in each case.
With `[Ca+2]` [Calcium], the “Cytosolic LPL activity, percentage of the control” value in data set [5] (pH 4.0) was determined as 100%; in [5] (pH 7.0), 236%. The “Cytosolic LPTA activity, percentage of the control” value in [5] (pH 4.0) is 100%; in data set [5] (pH 7.0), 206%. In addition, the “Membrane-associated LPL activity, percentage of the control” value in data set [6] (pH 4.0) is given as 100%; in data set [6] (pH 7.0), 166* %. Besides, the figures for the “Membrane-associated LPTA activity, percentage of the control” value in [6] (pH 4.0) and in data set [6] (pH 7.0) were 96% and 140* %, respectively. In addition, the entries for the “Cytosolic PLB activity, percentage of the control” value in [7] (pH 4.0) and in data set [7] (pH 7.0) were 100% and 591* %, respectively. In addition, the figures for the “Membrane-associated PLB activity, percentage of the control” value in [8] (pH 4.0) and in data set [8] (pH 7.0) were 83% and 533* %, respectively.
